Test results: PubChem BioAssay AID256 (DTP/NCI, 2004)
“And” between values parts separate entries of the source, which are not always exact repeats. Identical values can stand only once. Inconclusive results and toxic doses are left out. How the source made its calls: active means survival T/C of 150% or more; inactive means T/C below 125% in these data.

Tested on: CD2F1 mice, L1210 leukemia ip, survival T/C
Experiment: NCI In Vivo Anticancer Drug Screen. Data for tumor model L1210 Leukemia (intraperitoneal) in CD2F1 (CDF1) mice
Conditions: higher = longer survival
Summary of the method: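 Mice carrying a transplanted tumor received test compound or vehicle alone. The value is the measurement in the treated group divided by that in the vehicle-treated control group.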

[1] = endpoint: mean survival time, dose: 100.0 mg/kg/injection, schedule: Q04DX003 (ip), vehicle: saline with Tween-80
[2] = endpoint: mean survival time, dose: 200.0 mg/kg/injection, schedule: Q04DX003 (ip), vehicle: saline with Tween-80
[3] = endpoint: mean survival time, dose: 25.0 mg/kg/injection, schedule: Q04DX003 (ip), vehicle: saline with Tween-80
[4] = endpoint: mean survival time, dose: 100.0 mg/kg/injection, schedule: Q01DX009 (ip), vehicle: saline with Tween-80
[5] = endpoint: mean survival time, dose: 200.0 mg/kg/injection, schedule: Q01DX009 (ip), vehicle: saline with Tween-80
[6] = endpoint: mean survival time, dose: 400.0 mg/kg/injection, schedule: Q01DX009 (ip), vehicle: saline with Tween-80
[7] = endpoint: mean survival time, dose: 25.0 mg/kg/injection, schedule: Q01DX009 (ip), vehicle: saline with Tween-80

Measured: T/C

O=C(CCOP(=O)(N1CC1)N1CC1)OCc1ccccc1
inactive: endpoint: mean survival time, dose: 2.0 mg/kg/injection, schedule: Q01DX009 (ip), vehicle: water 101 % of control | endpoint: mean survival time, dose: 3.9 mg/kg/injection, schedule: Q01DX001 (ip), vehicle: Klucel (hydroxypropylcellulose) (HPC) 89 % of control | endpoint: mean survival time, dose: 4.0 mg/kg/injection, schedule: Q01DX009 (ip), vehicle: water 98 % of control | endpoint: mean survival time, dose: 7.8 mg/kg/injection, schedule: Q01DX001 (ip), vehicle: Klucel (hydroxypropylcellulose) (HPC) 102 % of control | endpoint: mean survival time, dose: 8.0 mg/kg/injection, schedule: Q01DX009 (ip), vehicle: water 104 % of control | endpoint: mean survival time, dose: 15.6 mg/kg/injection, schedule: Q01DX001 (ip), vehicle: Klucel (hydroxypropylcellulose) (HPC) 98 % of control | endpoint: mean survival time, dose: 16.0 mg/kg/injection, schedule: Q01DX009 (ip), vehicle: water 106 % of control | endpoint: mean survival time, dose: 31.2 mg/kg/injection, schedule: Q01DX001 (ip), vehicle: Klucel (hydroxypropylcellulose) (HPC) 88 % of control | endpoint: mean survival time, dose: 32.0 mg/kg/injection, schedule: Q01DX009 (ip), vehicle: water 118 % of control

O=C1c2ccccc2C(=O)c2c(NC3CCCCC3)ccc(Nc3ccc(S(=O)(=O)O)cc3)c21
inactive: endpoint: mean survival time, dose: 75.0 mg/kg/injection, schedule: Q01DX001 (ip), vehicle: saline 100 % of control | endpoint: mean survival time, dose: 150.0 mg/kg/injection, schedule: Q01DX001 (ip), vehicle: saline 100 % of control | endpoint: mean survival time, dose: 300.0 mg/kg/injection, schedule: Q01DX001 (ip), vehicle: saline 103 % of control

COc1nc(NC2OC(CO)C(O)C(O)C2O)c(Br)c(=O)[nH]1 (configuration not stated)
inactive: endpoint: median survival time, dose: 12.5 mg/kg/injection, schedule: Q01DX005 (ip), vehicle: saline 100 % of control | endpoint: median survival time, dose: 25.0 mg/kg/injection, schedule: Q01DX005 (ip), vehicle: saline 101 % of control | endpoint: median survival time, dose: 50.0 mg/kg/injection, schedule: Q01DX005 (ip), vehicle: saline 102 % of control | endpoint: median survival time, dose: 100.0 mg/kg/injection, schedule: Q01DX005 (ip), vehicle: saline 101 % of control | endpoint: median survival time, dose: 200.0 mg/kg/injection, schedule: Q01DX005 (ip), vehicle: saline 101 % of control

C[Si](C)(c1ccccc1C(=O)Nc1ccccc1)c1ccccc1C(=O)Nc1ccccc1
inactive: [1] 92 % of control | [2] 96 % of control | endpoint: mean survival time, dose: 400.0 mg/kg/injection, schedule: Q04DX003 (ip), vehicle: saline with Tween-80 101 % of control

Cn1c(=O)c2c(nc(Cl)n2Cc2ccccc2)n(C)c1=O
inactive: endpoint: mean survival time, dose: 12.5 mg/kg/injection, schedule: Q01DX005 (ip), vehicle: saline with Tween-80 93 % of control | endpoint: mean survival time, dose: 25.0 mg/kg/injection, schedule: Q01DX005 (ip), vehicle: saline with Tween-80 88 % of control | endpoint: mean survival time, dose: 50.0 mg/kg/injection, schedule: Q01DX005 (ip), vehicle: saline with Tween-80 87 % of control | endpoint: mean survival time, dose: 100.0 mg/kg/injection, schedule: Q01DX005 (ip), vehicle: saline with Tween-80 93 % of control

OCCN1CCN(CCO)CC1.[Cl][Pt+2][Cl]
inactive: [3] 101 % of control | [1] 97 % of control | [2] 94 % of control

COc1ccc(CNC(C#N)c2ccccc2)cc1OC (configuration not stated)
inactive: [4] 97 % of control | [5] 104 % of control | [6] 97 % of control

O=[N+]([O-])CC1CCCCC1O (configuration not stated)
inactive: endpoint: mean survival time, dose: 6.25 mg/kg/injection, schedule: Q01DX009 (ip), vehicle: saline with Tween-80 89 % of control | endpoint: mean survival time, dose: 6.25 mg/kg/injection, schedule: Q04DX003 (ip), vehicle: saline with Tween-80 102 % of control | endpoint: mean survival time, dose: 12.5 mg/kg/injection, schedule: Q01DX009 (ip), vehicle: saline with Tween-80 91 % of control | endpoint: mean survival time, dose: 12.5 mg/kg/injection, schedule: Q04DX003 (ip), vehicle: saline with Tween-80 96 % of control | [7] 94 % of control | [3] 93 % of control

CCCCCC(Br)C(Br)CC(Br)C(Br)CC(Br)C(Br)CCCCC(=O)O (configuration not stated)
inactive: endpoint: mean survival time, dose: 100.0 mg/kg/injection, schedule: Q01DX001 (ip), vehicle: Klucel (hydroxypropylcellulose) (HPC) 101 % of control | endpoint: mean survival time, dose: 200.0 mg/kg/injection, schedule: Q01DX001 (ip), vehicle: Klucel (hydroxypropylcellulose) (HPC) 96 % of control | endpoint: mean survival time, dose: 400.0 mg/kg/injection, schedule: Q01DX001 (ip), vehicle: Klucel (hydroxypropylcellulose) (HPC) 107 % of control

Nc1ccc2c(c1)C(=O)c1ccccc1C2=O
inactive: [7] 98 % of control | endpoint: mean survival time, dose: 50.0 mg/kg/injection, schedule: Q01DX009 (ip), vehicle: saline with Tween-80 98 % of control | [4] 101 % of control and 102 % of control | [5] 102 % of control | [6] 96 % of control

CCCCCCn1ncc(=O)[nH]c1=O
inactive: endpoint: mean survival time, dose: 12.5 mg/kg/injection, schedule: Q01DX009 (ip), vehicle: saline 101 % of control and 102 % of control (2×) | endpoint: mean survival time, dose: 25.0 mg/kg/injection, schedule: Q01DX009 (ip), vehicle: saline 93 % of control and 98 % of control and 101 % of control | endpoint: mean survival time, dose: 200.0 mg/kg/injection, schedule: Q01DX009 (ip), vehicle: saline 96 % of control
